Measured values: patent publication US10272110B2, “Methods for promoting HSC engraftment” (CHILDREN'S MEDICAL CENTER CORPORATION, priority 2006, dated 2019)
Read-outs that look alike come from different tables or passages of the source.

Experiments:
runx1/cmyb+ AGM HSCs = details: for Effect on HSC expression (# embryos altered/# embryos scored): runx1/cmyb+ HSCs, zebrafish embryos
Procedure: A chemical genetic screen was conducted to identify novel pathways that modulate definitive HSC formation during zebrafish embryogenesis. FIG. 1. Genes such as runx1 and cmyb, required for HSC development during mammalian hematopoiesis, are expressed in the ventral wall of the dorsal aorta in a region analogous to the mammalian AGM at thirty-six hours post-fertilization (hpf). […] Wild-type embryos were incubated with individual compounds from the three-somite stage until thirty-six hpf. Probes for runx1 and cmyb were combined and utilized to detect HSCs by in situ hybridization.
Wild-type age-matched embryos were arrayed into 48-well plates (˜5 embryos/well) of individual test compounds and exposed from 3-somites until 36 hpf. […] In situ hybridization for runx1 and cmyb was performed to assess HSCs. Compounds were retested at 10 μM, 20 μM, and 50 μM. Stem cell specificity was assessed using flk1 at 36 hpf. PGE2, PGI2, dmPGE2 and all cox inhibitors (Sigma) were used at 10 μM to 20 μM.
Qualitative scoring (# embryos with altered HSCs/# scored) of runx1/cmyb was conducted using the following criteria: Normal/unchanged=continuous line of runx1/cmyb+ endothelial cells and occasional hematopoietic clusters. Decreased/absent=reduction in runx1/cmyb+ cells, including the presence of large gaps in the line of HSCs, isolated positive cells, or absence of expression. Increased/excess=enhancement in runx1/cmyb^+ cells, including many HSC clusters, a thickened line of HSCs, or ectopic expression.

vasculature (flk1) = details: zebrafish embryos, 36 hpf
Procedure: Wild-type age-matched embryos were arrayed into 48-well plates (˜5 embryos/well) of individual test compounds and exposed from 3-somites until 36 hpf. Three compound libraries were utilized: NINDS Custom Collection (1040), SpecPlus Collection (960) and BIOMOL ICCB Known Bioactives (480). […] In situ hybridization for runx1 and cmyb was performed to assess HSCs. Compounds were retested at 10 μM, 20 μM, and 50 μM. Stem cell specificity was assessed using flk1 at 36 hpf. PGE2, PGI2, dmPGE2 and all cox inhibitors (Sigma) were used at 10 μM to 20 μM.

[1] = test system: kidney marrow (KM) hematopoietic lineages; test: Kidney marrow irradiation recovery assay in adult zebrafish; details: 10 μM, irradiated adult zebrafish
[2] = test system: CFU-S from murine bone marrow cells; test: Murine colony-forming units-spleen (CFU-S); format: in vivo, mouse; details: CFUS12, WBM treated ex vivo
Procedure: Two independent BM samples were treated (n=5/treatment×2 replicates) for each variable. Recipient mice were lethally irradiated with a split dose of 10 Gy. 6×10^4 unfractionated dmPGE2 or control-treated BM cells were injected retro-orbitally into irradiated recipient mice. Spleens were dissected on day eight or twelve, weighed and fixed with Bouin's solution; hematopoietic colonies per spleen were counted. 1×10^5 cells/recipient were transplanted after treatment with the cox inhibitors. FACS sorted ckit^+sca1^+lineage^− BM cells were treated as above and transplanted at a dose of either 100 cells/recipient or 300 cells/recipient.

[3] = test system: peripheral blood and bone marrow WBC; test: 5-Fluorouracil bone marrow injury; format: in vivo, mouse; details: in vivo exposure, IP, 1 mg/kg
Procedure: Mice were treated with 5-FU (150 mg/kg) as described. Venezia et al., 2004. […] Peripheral blood was obtained on day seven and day fourteen, quantified and subjected to multilineage FACS analysis using antibodies (eBioscience) to B220/IgM (B-lymphoid), CD4/8 (T-lymphoid), Mac1/Gr1 (myeloid), Ter119/CD71 (erythroid) and ckit/sca1 (stem/progenitor). Mice were sacrificed on day 16, and bone marrow was isolated, quantified and analyzed by FACS.

[4] = exposure from three somites to 36 hpf, runx1/cmyb staining

| Compound | effect on AGM HSCs in zebrafish embryos (in words) (runx1/cmyb+ AGM HSCs; [4]) | also measured |
| --- | --- | --- |
| CCCCC[C@H](O)/C=C/[C@H]1[C@H](O)CC(=O)[C@@H]1C/C=C/CCCC(=O)O (relative stereo) [5-trans PGE2] | – | toxicity in zebrafish embryo screen (runx1/cmyb+ AGM HSCs; Table 4): toxic |
| CCCCC[C@H](O)/C=C/C=C\CCCCCCCC(=O)O [13(S)-HODE] | – | Effect on HSC expression (# embryos altered/# embryos scored) (runx1/cmyb+ AGM HSCs; Table 1, 36 hpf): Increase (15/25) |
| CC(=O)Oc1ccccc1C(=O)O [Aspirin] | reduced stem cells in the aorta | – |
| CC(C)NCC(O)COc1ccc(CC(N)=O)cc1 (stereo not drawn) [Atenolol] | heightened production of AGM stem cells | – |
| O=C1Nc2cc(Br)ccc2/C1=C1/Nc2ccccc2/C1=N\O [BIO] | HSC enhancers | – |
| Cc1ccc(-c2cc(C(F)(F)F)nn2-c2ccc(S(N)(=O)=O)cc2)cc1 [Celecoxib] | – | decreased runx1/cmyb+ HSCs (# embryos altered/# scored) (runx1/cmyb+ AGM HSCs; 20 μM, 36 hpf): 26/31 |
| CCCCCC1OC1C/C=C\C/C=C\C/C=C\CCCC(=O)O (stereo not drawn) [Epoxyeicosatrienoic Acid] | – | Effect on HSC expression (# embryos altered/# embryos scored) (runx1/cmyb+ AGM HSCs; Table 1, 36 hpf): Increase (17/25) |
| O=C(O)CCC(=O)c1ccc(-c2ccccc2)cc1 [Fenbufen] | decreased HSCs | Effect on HSC expression (# embryos altered/# embryos scored) (runx1/cmyb+ AGM HSCs; Table 2, 36 hpf): Decrease (20/26) |
| O=S(=O)(NCCNC/C=C/c1ccc(Br)cc1)c1cccc2cnccc12 [H89] | inhibit HCS | – |
| CC(C)Cc1ccc(C(C)C(=O)O)cc1 (stereo not drawn) [Ibuprofen] | reduced stem cells in the aorta | – |
| CCCCCCOC(=O)[C@]1(O)C[C@@H]2O[C@@]1(C)n1c3ccccc3c3c4c(c5c6ccccc6n2c5c31)C(=O)NC4 [KT5720] | inhibit HCS | – |
| O=C1Cc2c([nH]c3ccc(Br)cc23)-c2ccccc2N1 [Kenpaullone] | inhibit HCSs | – |
| CCCCC/C=C\C/C=C\CCCCCCCC(=O)O [Linoleic Acid] | upregulated HSC formation | Effect on HSC expression (# embryos altered/# embryos scored) (runx1/cmyb+ AGM HSCs; Table 1, 36 hpf): Increase (22/30); effect on vasculature / flk1 staining (in words) (vasculature (flk1)): remained relatively unchanged |
| CCCc1c(OCCCCc2nnn[nH]2)ccc(C(C)=O)c1O [Ly-171883] | – | Effect on HSC expression (# embryos altered/# embryos scored) (runx1/cmyb+ AGM HSCs; Table 1, 36 hpf): Increase (17/26) |
| CCCCCCCC/C=C\C/C=C\C/C=C\CCCC(=O)O [Mead Acid] | upregulated HSC formation | Effect on HSC expression (# embryos altered/# embryos scored) (runx1/cmyb+ AGM HSCs; Table 1, 36 hpf): Increase (24/32) |
| CS(=O)(=O)Nc1ccc([N+](=O)[O-])cc1OC1CCCCC1 [NS398] | reduced stem cells in the aorta | survival of irradiated fish to day fourteen [1]: excessive death; decreased runx1/cmyb+ HSCs (# embryos altered/# scored) (runx1/cmyb+ AGM HSCs; 20 μM, 36 hpf): 35/44; CFUS activity under selective cox inhibition [2]: significantly alter CFUS activity; peripheral blood (day 14) and bone marrow (day 16) WBC counts after 5-FU injury [3]: significantly inhibited WBC recovery |
| COc1ccc2cc([C@H](C)C(=O)O)ccc2c1 [Naproxen] | reduced stem cells in the aorta | – |
| COc1cccc(-c2cc(=O)c3ccccc3o2)c1N [PD9805] | inhibit HCS | – |
| CCCCC[C@H](O)/C=C/[C@@H]1[C@@H](C/C=C\CCCC(=O)O)[C@@H](O)C[C@H]1O [PGF2] | no effect | – |
| CCCCC[C@H](O)/C=C/[C@@H]1[C@H]2C/C(=C/CCCC(=O)O)O[C@H]2C[C@H]1O [PGI2] | increase moderately | increased runx1/cmyb expression (# embryos altered/# scored) (runx1/cmyb+ AGM HSCs; 20 μM, 36 hpf): 28/47 |
| CCCCC[C@H](O)/C=C/[C@H]1C(=O)C=C[C@@H]1C/C=C\CCCC(=O)O [Prosteglandin J2] | – | Effect on HSC expression (# embryos altered/# embryos scored) (runx1/cmyb+ AGM HSCs; Table 2, 36 hpf): Decrease (12/22) |
| C[C@]12CC[C@H]3[C@@H](CC[C@]4(O)C[C@@H](O)CC[C@]34C=O)[C@@]1(O)CC[C@@H]2C1=CC(=O)OC1 [Strophanthidin] | increases AGM stem cells | – |
| CC1=C(CC(=O)O)c2cc(F)ccc2/C1=C\c1ccc([S+](C)[O-])cc1 (stereo not drawn) [Sulindac] | – | Effect on HSC expression (# embryos altered/# embryos scored) (runx1/cmyb+ AGM HSCs; Table 2, 36 hpf): Decrease (18/31) |
| CCCCC1(COC(=O)CCC(=O)O)C(=O)N(c2ccccc2)N(c2ccccc2)C1=O [Suxibuzone] | – | Effect on HSC expression (# embryos altered/# embryos scored) (runx1/cmyb+ AGM HSCs; Table 2, 36 hpf): Decrease (16/30) |
| N#CC(=C(/N)Sc1ccccc1N)/C(C#N)=C(\N)Sc1ccccc1N [U0126] | – | effect on AGM HSCs in zebrafish embryos (in words) (runx1/cmyb+ AGM HSCs; zebrafish, in vivo): inhibit HCS |
| CCCC(CCC)C(=O)O [Valproic Acid] | inhibit HCSs | – |
| [Cl-].[Li+] [lithium chloride] | HSC enhancers | – |
